According to ChEMBL document CHEMBL1144513, “Synthesis and SAR study of novel 7-(pyridinium-3-yl)-carbonyl imidazo[5,1-b]thiazol-2-yl carbapenems” (2007):
≈ marks a conversion by molar mass, not a printed value.

Tests used:
Format in all cases: functional
Staphylococcus aureus [1] = test: Antibacterial activity against Staphylococcus aureus 209P JC1 by agar dilution method
Staphylococcus aureus [2] = test: Antibacterial activity against methicillin-resistant Staphylococcus aureus M126 by agar dilution method
Staphylococcus aureus [3] = test: Antibacterial activity against carbapenem and methicillin-resistant Staphylococcus aureus M126HR by agar dilution method
Streptococcus pneumoniae = test: Antibacterial activity against penicillin-resistant Streptococcus pneumoniae KK133 by agar dilution method
Escherichia coli = test: Antibacterial activity against Escherichia coli NIHJ JC2 by agar dilution method
Klebsiella pneumoniae = test: Antibacterial activity against Klebsiella pneumoniae GN69 by agar dilution method
Moraxella catarrhalis = test: Antibacterial activity against Moraxella catarrhalis W-0500 by agar dilution method
Haemophilus influenzae = test: Antibacterial activity against beta-lactamase-negative ampicillin-resistant Haemophilus influenzae 870 by agar dilution method

Row | Structure (SMILES) | MIC (Staphylococcus aureus [1]) [µg/mL] | MIC (Staphylococcus aureus [2]) [µg/mL] | MIC (Staphylococcus aureus [3]) [µg/mL] | MIC (Streptococcus pneumoniae) [µg/mL] | MIC (Escherichia coli) [µg/mL] | MIC (Klebsiella pneumoniae) [µg/mL] | MIC (Moraxella catarrhalis) [µg/mL] | MIC (Haemophilus influenzae) [µg/mL]
1 | CCOC(=O)C[n+]1cccc(C(=O)c2ncn3cc(C4=C(C(=O)[O-])N5C(=O)[C@H]([C@@H](C)O)[C@H]5[C@H]4C)sc23)c1 | 0.016 (≈ 0.0305 µM) | 2 (≈ 3.81 µM) | 8 (≈ 15.3 µM) | 0.063 (≈ 0.12 µM) | 0.031 (≈ 0.0591 µM) | 0.063 (≈ 0.12 µM) | 0.031 (≈ 0.0591 µM) | 0.063 (≈ 0.12 µM)
2 | CSc1c2sc(C3=C(C(=O)[O-])N4C(=O)[C@H]([C@@H](C)O)[C@H]4[C@H]3C)cn2c[n+]1CC(N)=O | 0.008 (≈ 0.0183 µM) | 1 (≈ 2.29 µM) | 4 (≈ 9.16 µM) | 0.031 (≈ 0.071 µM) | 0.016 (≈ 0.0367 µM) | 0.031 (≈ 0.071 µM) | 0.031 (≈ 0.071 µM) | 0.5 (≈ 1.15 µM)
3 | C[C@@H](O)[C@H]1C(=O)N2C(C(=O)O)=C(c3cn4cnc(C(=O)c5cccs5)c4s3)[C@H](C)[C@H]12 | ≤ 0.008 | 0.031 (≈ 0.0699 µM) | 4 (≈ 9.02 µM) | 0.125 (≈ 0.282 µM) | 2 (≈ 4.51 µM) | 4 (≈ 9.02 µM) | 0.016 (≈ 0.0361 µM) | 0.125 (≈ 0.282 µM)
4 | C[C@@H](O)[C@H]1C(=O)N2C(C(=O)[O-])=C(c3cn4cnc(C(=O)c5ccc[n+](Cc6ccccc6)c5)c4s3)[C@H](C)[C@H]12 | ≤ 0.008 | 0.5 (≈ 0.946 µM) | 4 (≈ 7.57 µM) | 0.016 (≈ 0.0303 µM) | 0.5 (≈ 0.946 µM) | 1 (≈ 1.89 µM) | 0.063 (≈ 0.119 µM) | 0.063 (≈ 0.119 µM)
5 | C[C@@H](O)[C@H]1C(=O)N2C(C(=O)[O-])=C(c3cn4cnc(C(=O)c5ccc[n+](C)c5)c4s3)[C@H](C)[C@H]12 | ≤ 0.008 | 1 (≈ 2.21 µM) | 4 (≈ 8.84 µM) | 0.031 (≈ 0.0685 µM) | 0.063 (≈ 0.139 µM) | 0.063 (≈ 0.139 µM) | 0.031 (≈ 0.0685 µM) | 0.063 (≈ 0.139 µM)
6 | C[C@@H](O)[C@H]1C(=O)N2C(C(=O)O)=C(c3cn4cnc(C(=O)[C@@H]5C[C@@H](O)CN5)c4s3)[C@H](C)[C@H]12 | 0.016 (≈ 0.0358 µM) | 1 (≈ 2.24 µM) | 4 (≈ 8.96 µM) | 0.063 (≈ 0.141 µM) | 0.063 (≈ 0.141 µM) | 0.125 (≈ 0.28 µM) | 0.031 (≈ 0.0694 µM) | 0.125 (≈ 0.28 µM)
7 | C[C@@H](O)[C@H]1C(=O)N2C(C(=O)[O-])=C(c3cn4cnc(C(=O)c5ccc[n+](CCN(C)C)c5)c4s3)[C@H](C)[C@H]12 | ≤ 0.008 | 1 (≈ 1.96 µM) | 4 (≈ 7.85 µM) | 0.031 (≈ 0.0608 µM) | 0.125 (≈ 0.245 µM) | 0.25 (≈ 0.491 µM) | 0.031 (≈ 0.0608 µM) | 0.063 (≈ 0.124 µM)
8 | COCc1nc(C(=O)c2ccc[n+](CC(N)=O)c2)c2sc(C3=C(C(=O)[O-])N4C(=O)[C@H]([C@@H](C)O)[C@H]4[C@H]3C)cn12 | 0.031 (≈ 0.0575 µM) | 2 (≈ 3.71 µM) | 4 (≈ 7.41 µM) | 0.063 (≈ 0.117 µM) | 8 (≈ 14.8 µM) | 4 (≈ 7.41 µM) | 0.031 (≈ 0.0575 µM) | 0.063 (≈ 0.117 µM)
9 | C[C@@H](O)[C@H]1C(=O)N2C(C(=O)O)=C(c3cn4cnc(C(=O)c5ccncc5)c4s3)[C@H](C)[C@H]12 | ≤ 0.008 | 0.063 (≈ 0.144 µM) | 4 (≈ 9.12 µM) | 0.031 (≈ 0.0707 µM) | 2 (≈ 4.56 µM) | 2 (≈ 4.56 µM) | 0.031 (≈ 0.0707 µM) | 0.031 (≈ 0.0707 µM)
10 | C[C@@H](O)[C@H]1C(=O)N2C(C(=O)[O-])=C(c3cn4cnc(C(=O)c5ccc[n+](CC(=O)O)c5)c4s3)[C@H](C)[C@H]12 | 0.031 (≈ 0.0624 µM) | 2 (≈ 4.03 µM) | 8 (≈ 16.1 µM) | 0.063 (≈ 0.127 µM) | 0.031 (≈ 0.0624 µM) | 0.063 (≈ 0.127 µM) | 0.031 (≈ 0.0624 µM) | 0.063 (≈ 0.127 µM)
11 | C[C@@H](O)[C@H]1C(=O)N2C(C(=O)[O-])=C(c3cn4c(N5CCOCC5)nc(C(=O)c5ccc[n+](CC(N)=O)c5)c4s3)[C@H](C)[C@H]12 | 0.031 (≈ 0.0534 µM) | 2 (≈ 3.44 µM) | 8 (≈ 13.8 µM) | 0.063 (≈ 0.109 µM) | 16 (≈ 27.6 µM) | 16 (≈ 27.6 µM) | 0.063 (≈ 0.109 µM) | 0.125 (≈ 0.215 µM)
12 | CC(=O)C[n+]1cccc(C(=O)c2ncn3cc(C4=C(C(=O)[O-])N5C(=O)[C@H]([C@@H](C)O)[C@H]5[C@H]4C)sc23)c1 | 0.016 (≈ 0.0324 µM) | 1 (≈ 2.02 µM) | 4 (≈ 8.09 µM) | 0.063 (≈ 0.127 µM) | 0.125 (≈ 0.253 µM) | 0.25 (≈ 0.506 µM) | 0.031 (≈ 0.0627 µM) | 0.063 (≈ 0.127 µM)
13 | C[C@@H](O)[C@H]1C(=O)N2C(C(=O)O)=C(c3cn4cnc(C(=O)c5cncs5)c4s3)[C@H](C)[C@H]12 | ≤ 0.008 | 0.031 (≈ 0.0697 µM) | 4 (≈ 9 µM) | 0.031 (≈ 0.0697 µM) | 1 (≈ 2.25 µM) | 2 (≈ 4.5 µM) | 0.016 (≈ 0.036 µM) | 0.063 (≈ 0.142 µM)
14 | C[C@@H](O)[C@H]1C(=O)N2C(C(=O)O)=C(c3cn4cnc(C(=O)C5CCNCC5)c4s3)[C@H](C)[C@H]12 | 0.008 (≈ 0.018 µM) | 1 (≈ 2.25 µM) | 4 (≈ 9 µM) | 0.063 (≈ 0.142 µM) | 0.063 (≈ 0.142 µM) | 0.125 (≈ 0.281 µM) | 0.031 (≈ 0.0697 µM) | 0.063 (≈ 0.142 µM)
